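Exposure lasted 48 hours, with cells grown in 96-well plates and compounds tested at five concentrations. At the GI50, growth is halved.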 Calls of active or inactive are those of the source. Rule as the data show it: active = GI50 up to about 1.1 µM and inactive = higher.
How the values were obtained:
Assay in all cases: inhibition of tumour cell growth, NCI panel, 48 h
XF498 = test system: XF498
HOP-18 = test system: HOP-18
SNB-78 = test system: SNB-78
M19-MEL = test system: M19-MEL
KM-20L2 = test system: KM-20L2
LXFL 529 = test system: LXFL 529
DLD-1 = test system: DLD-1
BT-549 = test system: BT-549
RXF 631 = test system: RXF 631

Row | Compound | GI50 (HOP-18) | GI50 (SNB-78) | GI50 (M19-MEL) | GI50 (KM-20L2) | GI50 (LXFL 529) | GI50 (BT-549) | also measured
1 | COc1ccc(C(C)Nc2cc(OC)c(OC)c(OC)c2)cc1 (stereo not drawn) | > 100 µM (inactive) | 4.08 µM (inactive) | 4.75 µM (inactive) | 2.57 µM (inactive) | 6.38 µM (inactive) | – | GI50 (XF498): 6.89 µM (inactive); GI50 (DLD-1): 5.81 µM (inactive)
2 | COc1ccc(Nc2nc3c(N)cc(C(F)(F)F)cc3nc2-c2ccccc2)cc1OC | 13.7 µM (inactive) | 28.3 µM (inactive) | 22.5 µM (inactive) | 36.9 µM (inactive) | 15.3 µM (inactive) | – | GI50 (XF498): 14.8 µM (inactive); GI50 (DLD-1): 22.7 µM (inactive)
3 | Nc1ncnc2c1ncn2C1OC(CO)C(O)C1NS(=O)(=O)c1ccccc1 (stereo not drawn) | – | – | – | – | – | > 100 µM (inactive) | –
4 | CNC(=S)NC(=S)N(C)C | > 100 µM (inactive) | > 100 µM (inactive) | – | > 100 µM (inactive) | > 100 µM (inactive) | – | GI50 (XF498): > 100 µM (inactive); GI50 (RXF 631): > 100 µM (inactive); GI50 (DLD-1): 5.48 µM (inactive)
5 | O=c1c2cc(Br)ccc2nc(-c2ccccc2)n1NCC1(O)OCC(O)C(O)C1O (stereo not drawn) | – | > 100 µM (inactive) | > 100 µM (inactive) | > 100 µM (inactive) | 92 µM (inactive) | – | –
6 | COc1ccc2c(c1)-c1c(c3cc(OC)ccc3n1CCN(C)C)CC2 | – | – | – | – | – | 13.9 µM (inactive) | –
7 | CO[C@H]1/C=C/O[C@@]2(C)Oc3c(C)c(O)c4c(O)c(c(/C=N/N5CCN(C)CC5)c(O)c4c3C2=O)NC(=O)/C(C)=C\C=C\[C@H](C)[C@H](O)[C@@H](C)[C@@H](O)[C@@H](C)[C@H](OC(C)=O)[C@@H]1C [RIFAMPIN] | – | – | – | – | – | 62.8 µM (inactive) | –
8 | CC1(C)C(CC(=O)O)CCCC1CC(=O)O (stereo not drawn) | – | – | – | – | – | > 100 µM (inactive) | –
9 | CCOC(=O)C1=C(C)NC(=O)NC1c1coc2cc(C)cc(C)c2c1=O (stereo not drawn) | – | – | – | – | – | 99.3 µM (inactive) | –
10 | COC(=O)C(=O)C(C(=O)C(=O)Nc1cc(Cl)c(Cl)cc1Cl)c1nc2ccc([N+](=O)[O-])cc2nc1O (stereo not drawn) | 8.81 µM (inactive) | > 100 µM (inactive) | > 100 µM (inactive) | > 100 µM (inactive) | > 100 µM (inactive) | – | GI50 (XF498): 7.1 µM (inactive); GI50 (RXF 631): > 100 µM (inactive)
11 | COc1c(C)c2c(c3c1c(=O)c1ccccc1n3C)C=CC(C)(C)O2 | 38.1 µM (inactive) | 31.7 µM (inactive) | 31.7 µM (inactive) | 16.4 µM (inactive) | 26 µM (inactive) | – | GI50 (XF498): 24.9 µM (inactive); GI50 (DLD-1): 34.5 µM (inactive)
12 | CCN(CC)C(=O)CCn1cc(F)c(=O)[nH]c1=O | – | > 100 µM (inactive) | > 100 µM (inactive) | > 100 µM (inactive) | > 100 µM (inactive) | – | GI50 (XF498): > 100 µM (inactive)
13 | CC(=O)/C=C/CCC(=O)/C=C/C(=O)OC(CCC(=O)/C=C/C(=O)O)CC(C)=O (stereo not drawn) | – | – | – | – | – | > 100 µM (inactive) | –
14 | COc1ccc(C(=O)O)c(Cc2ccc3ccccc3c2)c1 | > 100 µM (inactive) | > 100 µM (inactive) | > 100 µM (inactive) | > 100 µM (inactive) | > 100 µM (inactive) | – | GI50 (XF498): > 100 µM (inactive); GI50 (DLD-1): > 100 µM (inactive)
15 | CC(C)NC(=O)OCc1c(COC(=O)NC(C)C)c(-c2ccc[n+](COC(=O)CC(C)(C)C)c2)n2c1CCC2 | – | – | – | – | – | > 100 µM (inactive) | –
16 | CC(C)CCC[C@@H](C)C1CCC2[C@@H]3CCC4CC(CCC=C(c5cc(Cl)c(OC(=O)c6ccccc6)c(C(=O)O)c5)c5cc(Cl)c(OC(=O)c6ccccc6)c(C(=O)O)c5)CC[C@]4(C)C3CC[C@@]21C (stereo partly drawn) | – | – | – | – | – | > 100 µM (inactive) | –
17 | S=c1[nH]c2ccc(Br)cc2c(=S)s1 | – | – | – | – | – | 29.9 µM (inactive) | –
18 | N#C[C@](CO)(NC(=O)OCc1ccccc1)C(F)F | – | – | – | – | – | > 100 µM (inactive) | –
19 | [N-]=[N+]=Nc1cc(=O)n(-c2ccccc2)c2ccccc12 | > 100 µM (inactive) | – | > 100 µM (inactive) | – | > 100 µM (inactive) | – | GI50 (DLD-1): > 100 µM (inactive)
20 | Nc1ccc(CCN2CCN(CCCc3ccccc3)CC2)cc1 | – | – | – | – | – | 80.7 µM (inactive) | –
21 | OCC(O)CNc1ncnc2ccccc12 (stereo not drawn) | – | – | – | – | – | > 100 µM (inactive) | –
22 | Cc1cccc(NC(=O)c2cccc([N+](=O)[O-])c2O)c1C | 4.74 µM (inactive) | 85.5 µM (inactive) | 21.9 µM (inactive) | 21.8 µM (inactive) | 34 µM (inactive) | 30.2 µM (inactive) | GI50 (XF498): 20.3 µM (inactive); GI50 (DLD-1): 27.3 µM (inactive)
23 | O=[N+]([O-])c1ccc(/C(=N/c2ccccc2)SS/C(=N\c2ccccc2)c2ccc([N+](=O)[O-])o2)o1 | – | – | – | – | – | 1.75 µM (inactive) | –
24 | COC(=O)c1cc2ccc(N)nc2[nH]c1=O | – | – | – | – | – | > 100 µM (inactive) | –
25 | CC(C)(C)OC(=O)Cn1ncn(NC(=O)Cc2ccccc2)c1=S | – | – | – | – | – | > 10 µM (inactive) | –
26 | CCC(/C(=N\Nc1c(Cl)cc(Cl)cc1Cl)c1ccccc1)n1ccnc1C (stereo not drawn) | 14.9 µM (inactive) | 19.1 µM (inactive) | 14.8 µM (inactive) | 4.61 µM (inactive) | 11.7 µM (inactive) | – | GI50 (RXF 631): 9.64 µM (inactive); GI50 (DLD-1): 4.22 µM (inactive)
27 | COc1ccc(-c2cc(-c3ccc(Nc4ccnc5cc(Cl)ccc45)cc3)[nH]c(=O)c2C#N)c2ccccc12 | – | – | – | – | – | 16.4 µM (inactive) | –
28 | Cc1cc(C)c2c(O)cc(-c3cccc(F)c3)nc2n1 | – | – | – | – | – | 0.175 µM (active) | –
29 | O=C(O)CCNCC(=O)O | – | – | – | – | – | > 100 µM (inactive) | –

Reference: ChEMBL document CHEMBL1201862, “PubChem BioAssay data set” (2004)
